The record followed here is PubChem BioAssay AID1259407 (Chemical Carcinogenesis Research Information System (CCRIS), 2018).

For the data set, the system named is CCRIS mutagenicity, Ames/micronucleus/aberration tests. Nature of the data set: CCRIS mutagenicity studies.

The source made the active and inactive calls. The rule behind the calls is not given here.

For the compound `OC1C2(Cl)C3(Cl)C4(Cl)C(Cl)(Cl)C5(Cl)C3(Cl)C1(Cl)C5(Cl)C24Cl` (stereo unspecified), the mutagenic call was “inactive; negative” (End Point: IN VITRO CHROMOSOMAL ABERRATIONS, Test System: CHINESE HAMSTER OVARY CELLS, Metabolic Activation: NONE); “inactive; negative” (Test System: AMES SALMONELLA TYPHIMURIUM, Strain/Indicator: TA98, Metabolic Activation: HAMSTER, LIVER, S-9, AROCLOR 1254 (10%), Method: PREINCUBATION); “inactive; negative” (Test System: AMES SALMONELLA TYPHIMURIUM, Strain/Indicator: TA98, Metabolic Activation: NONE, Method: PREINCUBATION); “inactive; negative” (Test System: AMES SALMONELLA TYPHIMURIUM, Strain/Indicator: TA98, Metabolic Activation: RAT, LIVER, S-9, AROCLOR 1254 (10%), Method: PREINCUBATION); “inactive; negative” (Test System: AMES SALMONELLA TYPHIMURIUM, Strain/Indicator: TA100, Metabolic Activation: HAMSTER, LIVER, S-9, AROCLOR 1254 (10%), Method: PREINCUBATION); “inactive; negative” (Test System: AMES SALMONELLA TYPHIMURIUM, Strain/Indicator: TA100, Metabolic Activation: NONE, Method: PREINCUBATION). Further, the mutagenic call was “inactive; negative” (Test System: AMES SALMONELLA TYPHIMURIUM, Strain/Indicator: TA100, Metabolic Activation: RAT, LIVER, S-9, AROCLOR 1254 (10%), Method: PREINCUBATION); “inactive; negative” (Test System: AMES SALMONELLA TYPHIMURIUM, Strain/Indicator: TA1535, Metabolic Activation: HAMSTER, LIVER, S-9, AROCLOR 1254 (10%), Method: PREINCUBATION); “inactive; negative” (Test System: AMES SALMONELLA TYPHIMURIUM, Strain/Indicator: TA1535, Metabolic Activation: NONE, Method: PREINCUBATION); “inactive; negative” (Test System: AMES SALMONELLA TYPHIMURIUM, Strain/Indicator: TA1535, Metabolic Activation: RAT, LIVER, S-9, AROCLOR 1254 (10%), Method: PREINCUBATION); “inactive; negative” (Test System: AMES SALMONELLA TYPHIMURIUM, Strain/Indicator: TA1537, Metabolic Activation: HAMSTER, LIVER, S-9, AROCLOR 1254 (10%), Method: PREINCUBATION); “inactive; negative” (Test System: AMES SALMONELLA TYPHIMURIUM, Strain/Indicator: TA1537, Metabolic Activation: NONE, Method: PREINCUBATION). The mutagenic call (Test System: AMES SALMONELLA TYPHIMURIUM, Strain/Indicator: TA1537, Metabolic Activation: RAT, LIVER, S-9, AROCLOR 1254 (10%), Method: PREINCUBATION) was “inactive; negative”.

In the case of `CC[C@@H](C)OS(C)(=O)=O`, the mutagenic call is “inactive; negative” (Test System: AMES SALMONELLA TYPHIMURIUM, Strain/Indicator: TA100, Metabolic Activation: NONE, Method: STANDARD PLATE); “active; positive” (Test System: AMES SALMONELLA TYPHIMURIUM, Strain/Indicator: TA1535, Metabolic Activation: NONE, Method: STANDARD PLATE); “active; positive” (Test System: CHINESE HAMSTER V-79, Strain/Indicator: V-79/6-THIOGUANINE, Metabolic Activation: NONE).
